Results reported in PubChem BioAssay (NCI).
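Five compound concentrations were applied to cells in 96-well plates for 48 hours; endpoints were derived by simple linear interpolation of the resulting dose-response curve. GI50 = concentration required for 50% inhibition of growth. The concentration for full growth arrest is given as TGI.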

Assays:
Assay in all cases: DTP human tumour cell line panel, 48 h
786-0 renal = test system: 786-0 renal
A498 renal = test system: A498 renal
A549 NSCLC = test system: A549 NSCLC
CAKI-1 renal = test system: CAKI-1 renal
EKVX NSCLC = test system: EKVX NSCLC
MDA-MB-231 breast = test system: MDA-MB-231 breast
RXF 393 renal = test system: RXF 393 renal
SF-295 CNS = test system: SF-295 CNS
SR leukemia = test system: SR leukemia
UACC-257 melanoma = test system: UACC-257 melanoma
UO-31 renal = test system: UO-31 renal

Row | Compound | TGI (786-0 renal) [µM] | TGI (A498 renal) [µM] | TGI (A549 NSCLC) [µM] | TGI (CAKI-1 renal) [µM] | TGI (EKVX NSCLC) [µM] | TGI (MDA-MB-231 breast) [µM] | TGI (RXF 393 renal) [µM] | TGI (SF-295 CNS) [µM] | TGI (SR leukemia) [µM] | TGI (UACC-257 melanoma) [µM] | TGI (UO-31 renal) [µM] | GI50 (A498 renal) [µM] | GI50 (A549 NSCLC) [µM] | GI50 (CAKI-1 renal) [µM] | GI50 (EKVX NSCLC) [µM] | GI50 (MDA-MB-231 breast) [µM] | GI50 (RXF 393 renal) [µM] | GI50 (SF-295 CNS) [µM] | GI50 (SR leukemia) [µM] | GI50 (UACC-257 melanoma) [µM]
1 | CC(=O)O[C@@H]1C2=C(C)C=C(O2)[C@H]2O[C@]2(C)C[C@H]2C=C(C(=O)O2)[C@H](OC(C)=O)CC1[C@@]1(C)CO1 (some centres undefined) | 77.1 | > 100 | > 100 | 62.8 | 85 | 78.8 | 36.8 | > 100 | 47.5 | > 100 | 51.4 |  |  |  |  |  |  |  |  | 
2 | N#C/C(=C\NC(=S)c1ccncc1)c1nc2ccccc2s1 | > 100 | > 100 | > 100 | > 100 | > 100 | > 100 | > 100 | > 100 | > 100 | > 100 | > 100 |  |  |  |  |  |  |  |  | 
3 | O=C(Cc1nccc2c1[nH]c1ccccc12)OC1C#CCSCC#C/C=C\1 (centres undefined) | > 100 | > 100 | > 100 | > 100 | > 100 | > 100 | > 100 | > 100 | > 100 | > 100 | > 100 |  |  |  |  |  |  |  |  | 
4 | CN(C)c1nncc2[nH]cnc12 | > 100 | > 100 | > 100 | > 100 | > 100 | > 100 | > 100 | > 100 | > 100 | > 100 | > 100 |  |  |  |  |  |  |  |  | 
5 | Cc1cc(C)c2c(n1)S(=O)(=O)N(CCCN1CCN(c3cccc(C(F)(F)F)c3)CC1)c1c-2nn(C)c1C | > 100 | > 100 | > 100 | > 100 | > 100 | > 100 | > 100 | > 100 | 62 | > 100 | > 100 |  |  |  |  |  |  |  |  | 
6 | c1csc(-c2cc(-c3cccs3)c(-c3cccs3)s2)c1 | > 100 | > 100 | > 100 | > 100 | > 100 | > 100 | > 100 | > 100 | > 100 | > 100 | > 100 |  |  |  |  |  |  |  |  | 
7 | O=C1/C(=C/c2ccccc2O)N=C(c2ccccc2)N1c1nc2ccccc2s1 | 53.8 | 53.1 |  | > 100 | > 100 | 95.1 | > 100 | 87.1 | 7.19 | 79.2 | > 100 |  |  |  |  |  |  |  |  | 
8 | COC(=O)C1=C(O)C(C(=O)OC)[C@]2(O)[C@H](C(=O)OC)[C@H]1C[C@@H](c1c(Cl)cccc1Cl)[C@H]2C(=O)OC (some centres undefined) | 3.48 | 4.15 | 6.21 | 11.3 | 18.4 | 12.9 | 3.92 | 7.57 | 4.87 | 6.08 | 3.01 |  |  |  |  |  |  |  |  | 
9 | CC(C)C1=CCC2C(=C1)CCC1C(C)(C(=O)O)CCCC21C (centres undefined) (tested in a mixture with another compound) | > 100 | > 100 | > 100 | > 100 | > 100 | > 100 | > 100 | > 100 | > 100 | > 100 | > 100 |  |  |  |  |  |  |  |  | 
10 | NC1CC2NC3CCCCC3NC2CC1N (centres undefined) | > 100 | 79.4 | > 100 | > 100 | > 100 | > 100 | 94.5 | > 100 | > 100 | > 100 | > 100 |  |  |  |  |  |  |  |  | 
11 | CC1OC2(CC(OCc3ccccc3)C1OCc1ccccc1)OCCO2 (centres undefined) | > 100 | > 100 | > 100 | > 100 | > 100 | > 100 | 74.4 | > 100 | > 100 | > 100 | > 100 |  |  |  |  |  |  |  |  | 
12 | Nc1[nH]c(=S)nc2snnc12 | > 100 | > 100 | > 100 | > 100 |  | > 100 | > 100 | > 100 | > 100 | > 100 | > 100 |  |  |  |  |  |  |  |  | 
13 | CCOC(=O)c1c(N2CCCC2)[nH]c(=O)c(C(c2ccco2)c2c(O)c(C(=O)OCC)c(N3CCCC3)[nH]c2=O)c1O | > 100 | > 100 | > 100 | > 100 | > 100 | > 100 | > 100 | > 100 | > 100 | > 100 | > 100 |  |  |  |  |  |  |  |  | 
14 | CC(=O)N(O)[C@@H]1CC[C@H](n2cnc3c(N)ncnc32)C1 | > 100 | > 100 | > 100 | > 100 | > 100 | > 100 | > 100 | > 100 | > 100 | > 100 | > 100 |  |  |  |  |  |  |  |  | 
15 | CN1C(=O)[C@@H]2[C@@H]3c4ccccc4N(S(=O)(=O)C(F)(F)F)[C@@H]3c3[nH]c4ccccc4c3[C@@H]2C1=O | > 100 | > 100 | > 100 | > 100 | > 100 | > 100 | > 100 | > 100 | 43 | > 100 | > 100 |  |  |  |  |  |  |  |  | 
16 | Brc1ccc2c([C@H]3CN[C@@H](c4c[nH]c5cc(Br)ccc45)CN3)c[nH]c2c1 | 3.18 | 3.6 | 7.39 | 11.3 | 23.2 | 6.65 | 6.6 | 19.3 | 6.77 | 28.1 | 13.8 |  |  |  |  |  |  |  |  | 
17 | CC(=O)OCC1OC(SC2OC(COC(C)=O)C(OC(C)=O)C(OC(C)=O)C2OC(C)=O)C(OC(C)=O)C(OC(C)=O)C1OC(C)=O (centres undefined) | > 100 | > 100 | > 100 | > 100 | > 100 | > 100 | > 100 | > 100 | > 100 | > 100 | > 100 |  |  |  |  |  |  |  |  | 
18 | CC(C)[Si](OC1=CCC[C@H]2NC(=O)[C@@H](Cc3ccccc3)[C@@]12C)(C(C)C)C(C)C | 14.9 | 19.2 | 12.6 | 14.6 | 15 | 26.5 | 15 | 17.2 | 7.19 | 16.3 | 22.3 |  |  |  |  |  |  |  |  | 
19 | O=C1/C(=C/c2ccc(Cl)cc2)N=C(c2ccccc2)N1CCc1cccs1 |  | > 100 | > 100 | > 100 | > 100 | 98.7 | > 100 | > 100 | > 100 | > 100 |  | 16.7 | 31.4 | 20.4 | 13.8 | 13.6 | 23.3 | 17.7 | 24.2 | 36
